4 compounds from patent publication US10722515B2, “Dual CLK/CDK1 inhibitors for cancer treatment” (SRI INTERNATIONAL, priority 2016, dated 2020) can be followed below.

Where two headings read alike, the source gives them in different places. Bounds are passed on as bounds.

In one assay the target is T1, CLK1(h) (Homo sapiens, UniProt P49759).
T1 construct: purchased Eurofins, Dundee, Scotland
Briefly: radiometric protein kinase assay, CLK1. The format is biochemical. How it is done: (§1) Enzymatic biochemical activities were evaluated in radiometric protein kinase assays (Eurofins, Dundee, Scotland). Kinases are incubated with buffer, substrate and [γ-^33P]-ATP (specific activity approx. 500 cpm/pmol, concentration as required). The reaction is initiated by the addition of the MgATP mix. After incubation for 40 minutes at room temperature, the reaction is stopped by the addition of 3% phosphoric acid solution. 10 μL of the reaction is then spotted onto a P30 filtermat and washed three times for 5 minutes in 75 mM phosphoric acid and once in methanol prior to drying and scintillation counting.
(§2) All compounds are prepared to 50× final assay concentration in 100% DMSO. Positive control wells contain all components of the reaction with 2% DMSO. Blank wells contain all components of the reaction, with a reference inhibitor replacing the compound of interest. Each kinase is assigned a standard assay concentration of ATP within 20 μM of its apparent KM. Compounds were screened at 1 μM in duplicate or tested at 10 concentrations at half log dilution starting from 10 μM in singlicate. Dose response curves were fitted with four parameter logistic curve to obtain IC50 values. The average coefficient of variation (CV) of the conducted assay is 4.4%.

The next assay deals with T2, CLK3(h) (Homo sapiens, UniProt P49761).
T2 construct: purchased Eurofins, Dundee, Scotland
T2 sequence (P49761 whole entry): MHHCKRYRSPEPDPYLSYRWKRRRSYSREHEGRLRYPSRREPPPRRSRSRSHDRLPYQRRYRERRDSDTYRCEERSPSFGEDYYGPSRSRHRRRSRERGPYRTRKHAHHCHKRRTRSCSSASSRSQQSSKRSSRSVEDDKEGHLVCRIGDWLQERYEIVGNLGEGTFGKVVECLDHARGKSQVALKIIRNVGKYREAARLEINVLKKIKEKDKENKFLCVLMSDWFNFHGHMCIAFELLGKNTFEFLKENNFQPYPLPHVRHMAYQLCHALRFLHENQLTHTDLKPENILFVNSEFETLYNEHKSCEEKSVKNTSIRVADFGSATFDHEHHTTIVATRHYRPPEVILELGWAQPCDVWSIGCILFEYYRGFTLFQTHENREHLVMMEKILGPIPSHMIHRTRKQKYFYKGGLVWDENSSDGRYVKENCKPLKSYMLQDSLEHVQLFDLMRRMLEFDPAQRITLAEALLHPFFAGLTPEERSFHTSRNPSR
Briefly: radiometric protein kinase assay, CLK3. The format is biochemical. As to the method:
as §1, §2

A further assay deals with T3, CLK2(h) (Homo sapiens, UniProt P49760).
T3 construct: purchased Eurofins, Dundee, Scotland
T3 sequence (P49760 whole entry): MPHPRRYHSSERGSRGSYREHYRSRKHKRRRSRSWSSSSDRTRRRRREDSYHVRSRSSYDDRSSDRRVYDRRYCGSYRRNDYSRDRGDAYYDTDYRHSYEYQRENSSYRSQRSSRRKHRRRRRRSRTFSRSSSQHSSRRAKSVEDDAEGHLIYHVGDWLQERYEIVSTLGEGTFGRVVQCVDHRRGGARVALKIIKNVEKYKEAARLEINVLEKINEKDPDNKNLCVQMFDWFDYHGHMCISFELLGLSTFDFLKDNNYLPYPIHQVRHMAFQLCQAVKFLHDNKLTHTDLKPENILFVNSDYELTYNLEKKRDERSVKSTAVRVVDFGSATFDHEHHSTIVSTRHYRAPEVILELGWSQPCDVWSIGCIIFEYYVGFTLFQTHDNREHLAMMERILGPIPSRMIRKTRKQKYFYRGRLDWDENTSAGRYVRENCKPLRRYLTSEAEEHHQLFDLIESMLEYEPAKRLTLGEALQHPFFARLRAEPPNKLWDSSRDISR
As to the kind of experiment: radiometric protein kinase assay, CLK2. The note with it: enzyme inhibition, ATP 10 μM. The format is biochemical. How it is done:
as §1, §2

Assay [1] relates to MDM2 alternate splicing in Rh-18 cells. As to the kind of experiment: Rh-18 MDM2 RT-PCR gel-based assay (orthogonal secondary assay). It counts as cell-based. The note with it: 10 μM, 8 h. As to the method: These hits were then subjected to a confirmatory assay in the Rh-18 MDM2 RT-PCR gel-based assay at a concentration of 10 μM.
Referring to FIG. 6, cells were exposed to 0.5% DMSO, 0.2 μM sudemycin D6 or […] CGP-74514A for 8 h. Total RNA was extracted by RNeasy Mini Kit (Qiagen). High capacity RNA-to-cDNA kit (Life technologies) was used to convert the RNA to cDNA.
Referring to FIG. 7, cells were exposed to 0.5% DMSO (lane 1), 1 μM sudemycin D6 (lane 2), 10 μM Compound 14 (lane 3), and 10 μM Compound 15 (lane 4) for 8 h. The total RNA was extracted by RNeasy Mini Kit (Qiagen). High capacity RNA-to-cDNA kit (Life technologies) was used to convert the RNA to cDNA. […] Ubiquitin transcripts (165 bp) in the same cells were used as a control (Fan et al. (2011) ACS Chem. Biol. 6: 582-9).

For a further assay, the target named is T4, CDK1/cyclinB(h) (Homo sapiens, UniProt P06493).
T4 construct: purchased Eurofins, Dundee, Scotland
T4 sequence (P06493 whole entry): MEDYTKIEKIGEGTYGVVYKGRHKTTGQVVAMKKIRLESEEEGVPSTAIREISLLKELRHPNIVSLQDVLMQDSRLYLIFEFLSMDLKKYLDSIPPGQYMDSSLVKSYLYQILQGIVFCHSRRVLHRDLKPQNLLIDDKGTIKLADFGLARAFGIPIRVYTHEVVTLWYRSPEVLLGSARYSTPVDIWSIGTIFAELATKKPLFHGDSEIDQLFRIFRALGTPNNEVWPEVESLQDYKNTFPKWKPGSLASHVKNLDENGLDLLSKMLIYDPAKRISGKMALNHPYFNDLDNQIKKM
T4 sequence (P14635 whole entry partner): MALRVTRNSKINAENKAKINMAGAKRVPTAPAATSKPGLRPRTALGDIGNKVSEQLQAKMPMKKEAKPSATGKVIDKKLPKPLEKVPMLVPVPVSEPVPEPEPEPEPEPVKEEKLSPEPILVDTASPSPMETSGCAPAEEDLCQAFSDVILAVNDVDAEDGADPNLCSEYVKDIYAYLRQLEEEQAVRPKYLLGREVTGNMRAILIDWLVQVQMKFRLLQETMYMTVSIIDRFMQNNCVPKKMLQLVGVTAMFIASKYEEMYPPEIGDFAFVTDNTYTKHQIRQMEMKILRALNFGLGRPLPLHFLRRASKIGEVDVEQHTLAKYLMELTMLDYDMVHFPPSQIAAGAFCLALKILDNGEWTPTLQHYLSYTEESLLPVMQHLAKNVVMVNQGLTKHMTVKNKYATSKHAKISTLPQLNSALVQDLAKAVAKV
Briefly: radiometric protein kinase assay, CDK1. It counts as biochemical. The note with it: enzyme inhibition, ATP 45 μM. As to the method:
as §1, §2

In another assay the target is T5, CDK6/cyclinD3(h) (Homo sapiens, UniProt Q00534).
T5 construct: purchased Eurofins, Dundee, Scotland
T5 sequence (Q00534 whole entry): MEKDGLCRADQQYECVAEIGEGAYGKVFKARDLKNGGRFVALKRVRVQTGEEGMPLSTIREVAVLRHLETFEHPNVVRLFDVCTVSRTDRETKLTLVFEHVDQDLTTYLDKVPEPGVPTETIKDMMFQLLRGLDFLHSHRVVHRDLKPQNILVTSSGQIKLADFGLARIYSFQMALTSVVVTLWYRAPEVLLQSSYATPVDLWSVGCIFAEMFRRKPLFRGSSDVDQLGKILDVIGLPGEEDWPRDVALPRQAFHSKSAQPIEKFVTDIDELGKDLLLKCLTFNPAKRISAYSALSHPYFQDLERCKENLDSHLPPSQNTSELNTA
T5 sequence (P30281 whole entry partner): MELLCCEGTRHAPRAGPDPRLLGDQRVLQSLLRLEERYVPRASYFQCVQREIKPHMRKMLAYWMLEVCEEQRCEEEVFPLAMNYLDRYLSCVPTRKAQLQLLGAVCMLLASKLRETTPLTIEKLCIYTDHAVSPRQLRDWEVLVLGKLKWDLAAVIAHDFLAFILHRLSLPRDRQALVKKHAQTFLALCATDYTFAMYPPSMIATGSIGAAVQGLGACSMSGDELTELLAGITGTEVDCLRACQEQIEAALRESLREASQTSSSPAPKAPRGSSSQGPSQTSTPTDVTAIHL
As to the kind of experiment: radiometric protein kinase assay, CDK6. It counts as biochemical. The note with it: enzyme inhibition, ATP 20 μM. As to the method: as §1, §2

Assay [2] concerns SK-MEL-2/Luc-MDM2 cells (MDM2-Luc exon-skipping reporter). Briefly: cell-based MDM2-Luc exon-skipping reporter assay. The note with it: for MDM2/Luc: luciferase activation vs DMSO control, average of three experiments; for luciferase response (Luc fold) in the MDM2-Luc reporter assay: compared with less potent CLK inhibitors of the series. (In general: Reporter assays use an easily measured gene product as a stand-in for the process of interest.)

The target in another assay is T6, CDK4/cyclinD3(h) (Homo sapiens, UniProt P11802).
T6 construct: purchased Eurofins, Dundee, Scotland
T6 sequence (P11802 whole entry): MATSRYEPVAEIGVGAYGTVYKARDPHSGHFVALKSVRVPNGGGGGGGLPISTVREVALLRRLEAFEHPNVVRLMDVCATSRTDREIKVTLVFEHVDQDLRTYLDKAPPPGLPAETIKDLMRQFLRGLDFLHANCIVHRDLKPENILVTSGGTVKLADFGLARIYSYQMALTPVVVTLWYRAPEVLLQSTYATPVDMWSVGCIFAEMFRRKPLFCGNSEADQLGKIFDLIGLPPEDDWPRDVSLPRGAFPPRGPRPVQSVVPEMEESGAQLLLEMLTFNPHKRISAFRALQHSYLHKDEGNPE
T6 sequence (P30281 whole entry partner): as the sequence (P30281 whole entry partner) above
As to the kind of experiment: radiometric protein kinase assay, CDK4. The format is biochemical. The note with it: enzyme inhibition, ATP 20 μM. How it is done:
as §1, §2

A further assay has as its target T7, CLK4(h) (Homo sapiens, UniProt Q9HAZ1).
T7 construct: purchased Eurofins, Dundee, Scotland
As to the kind of experiment: radiometric protein kinase assay, CLK4. It counts as biochemical. The note with it: enzyme inhibition, ATP 10 μM. As to the method: as §1, §2

[3] abbreviates: enzyme inhibition, radiometric, ATP 10 μM, read-out: IC50 (nM) CLK1.
Where [4] appears, read: enzyme inhibition, radiometric, ATP 90 μM, read-out: IC50 (nM) CLK3.

T1 sequence (P49759 whole entry): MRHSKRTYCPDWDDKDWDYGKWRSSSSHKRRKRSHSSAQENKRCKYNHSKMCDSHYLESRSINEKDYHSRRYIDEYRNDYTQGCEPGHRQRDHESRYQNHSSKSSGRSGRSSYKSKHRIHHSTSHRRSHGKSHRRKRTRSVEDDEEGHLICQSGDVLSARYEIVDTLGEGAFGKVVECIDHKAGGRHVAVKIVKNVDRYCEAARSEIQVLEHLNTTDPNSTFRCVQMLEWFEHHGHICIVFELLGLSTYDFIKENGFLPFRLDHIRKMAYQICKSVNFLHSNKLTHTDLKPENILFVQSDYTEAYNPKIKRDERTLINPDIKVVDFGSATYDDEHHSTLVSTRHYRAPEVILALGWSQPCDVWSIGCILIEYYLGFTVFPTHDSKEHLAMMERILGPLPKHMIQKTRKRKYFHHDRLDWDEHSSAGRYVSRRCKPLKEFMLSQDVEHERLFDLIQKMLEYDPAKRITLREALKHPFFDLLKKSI
T7 sequence (Q9HAZ1 whole entry): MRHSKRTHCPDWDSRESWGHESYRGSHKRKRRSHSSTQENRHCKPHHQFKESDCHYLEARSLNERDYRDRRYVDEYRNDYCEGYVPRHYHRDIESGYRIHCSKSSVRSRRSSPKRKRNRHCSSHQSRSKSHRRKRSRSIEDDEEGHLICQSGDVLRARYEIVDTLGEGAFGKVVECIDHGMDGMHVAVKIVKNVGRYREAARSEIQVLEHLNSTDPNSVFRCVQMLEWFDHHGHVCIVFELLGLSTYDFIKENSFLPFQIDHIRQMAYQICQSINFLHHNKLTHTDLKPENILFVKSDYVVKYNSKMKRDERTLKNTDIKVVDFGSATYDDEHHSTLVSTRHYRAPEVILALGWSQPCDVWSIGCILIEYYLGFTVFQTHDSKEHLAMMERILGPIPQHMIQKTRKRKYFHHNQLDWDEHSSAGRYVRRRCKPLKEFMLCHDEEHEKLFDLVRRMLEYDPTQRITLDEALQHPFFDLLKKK

As usually defined, the IC50 is the concentration that inhibits the measured activity by half. As to `CCn1cnc2c(Nc3cccc(Cl)c3)nc(NC3CCCCC3N)nc21` (racemic) [CGP-74514A (1), Racemicm-(Cis-2-Aminocyclohexyl)-N-(3-Chlorophenyl)-9-Ethyl-9H-Purine-2,6-Diamine, reference compound], the IC50 against CLK1(h) is 148 nM; against CLK3(h), over 1000 nM; on CLK2(h) it was 111 nM; on CDK1/cyclinB(h), 382 nM; on CDK6/cyclinD3(h), over 1000 nM; on CDK4/cyclinD3(h) it was 573 nM. The compound further returned an IC50 against CLK4(h) of 104 nM. In addition, the “activity in the Rh-18 MDM2 RT-PCR gel-based confirmatory assay” value in assay [1] is “clear activity”. In [2], the MDM2/Luc entry is listed as “Active”.
Turning to `CC(=O)Nc1cc(Cl)cc(Nc2nc(NC3CCCCC3N)nc3c2ncn3C(C)C)c1` (racemic) [Compound 15, Racemic N-Cis(3-((2-((2-Aminocyclohexyl)Amino)-9-Isopropyl-9H-Purin-6-Yl)Amino)-5-Chlorophenyl)Acetamide], the IC50 on CLK1(h) (setting [3]) was 19 nM; on CLK3(h) (setting [4]) it was over 1000 nM; on CLK2(h), 13 nM; against CDK1/cyclinB(h), over 1000 nM; against CDK6/cyclinD3(h), over 1000 nM; on CDK4/cyclinD3(h), 930 nM. Also, the midpoint of inhibition on CLK4(h), the IC50, lay at 64 nM. Moreover, the “activity in the Rh-18 MDM2 RT-PCR gel-based confirmatory assay” value in assay [1] is recorded as “confirmation”. Besides, the “luciferase response (Luc fold) in the MDM2-Luc reporter assay” value in assay [2] is recorded as “stronger luciferase response”. Moreover, the MDM2/Luc result in [2] is recorded as “Active”. Moreover, the MDM2-Luc activity result in assay [2] (result in words, no concentration stated) is “strong MDM2-Luc activity”.
As to `CC(C)[C@H](CO)Nc1nc(Nc2cc(N)cc(Cl)c2)c2ncn(C(C)C)c2n1` [Aminopurvalanol A, reference compound], in [1], the “activity in the Rh-18 MDM2 RT-PCR gel-based confirmatory assay” value is listed as “clear activity”.
Consider `CC(C)n1cnc2c(Nc3cccc(Cl)c3)nc(N[C@H]3CCCC[C@H]3N)nc21` [Compound 10, N^2-((1S,2R)-2-Aminocyclohexyl)-N^6-(3-Chlorophenyl)-9-Isopropyl-9H-Purine-2,6-Diamine], for which the IC50 was 74 nM on CLK1(h) (setting [3]); over 1000 nM on CLK3(h) (setting [4]); 26 nM at CLK2(h); over 1000 nM on CDK1/cyclinB(h); over 1000 nM against CDK6/cyclinD3(h); over 1000 nM against CDK4/cyclinD3(h). This compound also returned an IC50 against CLK4(h) of 70 nM. Also, the “luciferase response (Luc fold) in the MDM2-Luc reporter assay” value in [2] is “stronger luciferase response”. Moreover, the MDM2/Luc result in assay [2] is recorded as “Active”.
